In US7455840B2, “Compositions and methods to reduce mutagenesis” (priority 2003, dated 2008):
Values after ≈ are worked out from the molar mass of the structure shown. Read-outs that look alike come from different tables or passages of the source.

Key:
[1] = tested on: E. coli MG1655; assay: pre-exposure to rifampicin, then plating on 35 ng/mL ciprofloxacin; assay type: cell-based
[2] = tested on: E. coli ATCC 25922-ΔlacZ; assay: neutropenic Swiss ICR mouse thigh infection treated with rifampin, CFU determination; settings: lacZ Strain; rifampin 100 mg/kg subcutaneous every 12 hours; 96 h
Protocol: Two hours after infection the mice received rifampin at 100 mg/kg (subcutaneous) every 12 hours. The mice continued the rifampin regimen until they were sacrificed. Two mice were sacrificed at 0, 24, 48, 72 and 96 hours. The thighs were removed, homogenized, 1:10 serial diluted, and plated for CFU determination. Homogenates were plated on MH agar (NHA) to quantify the entire population of organisms and on rifampin containing MHA plates (16 mg/L) to quantify the population of organisms with a rifampin resistance phenotype.

[3] = tested on: ATCC 25922 lexA(S119A); assay: in vitro susceptibility testing with rifampin, Example 8; assay type: cell-based, E. coli
Protocol: (§1) In vitro susceptibility testing was performed with rifampin on the parent strains and on cells isolated from the agar plates after therapy.

[4] = tested on: E. coli ATCC 25922-ΔlacZ; assay: neutropenic CD1 mouse thigh infection treated with rifampin, colonies on rifampin plates; settings: rifampin 100 mg/kg twice daily subcutaneous; plates 128 mg/L; after 72 h of therapy
Protocol: (§3) Two hours after infection mice were treated with rifampin 100 mg/kg twice daily via the subcutaneous route. Groups of two mice were sacrificed at the started of therapy (zero hour) and every 24 h for a period of 72 h. After euthanasia, thigh were removed, homogenized, diluted, and plated for CFU enumeration (lower limit of detection is 2 log cfu/thigh). Homogenate dilutions were plated on MHA with and without rifampin (128 mg/L).

[5] = tested on: LexA strain (ATCC 25922 lexA(S119A)); assay: in vitro susceptibility testing (NCCLS method), rifampin MIC; assay type: cell-based, E. coli; settings: Escherichia coli
Protocol: (§2) In vitro susceptibility testing of strains was preformed using the NCCLS method. (See National Committee for Clinical Laboratory Standards. 1997. Reference method for broth dilution anti-fungal susceptibility testing of yeasts. Approved standard M27-A. National Committee for Clinical Laboratory Standards, Wayne, Pa.) Eight colonies from each group at the 72 hr time point from MHA plate with and without rifampin were obtained. Minimum inhibitory concentrations (“MICs”) were performed in duplicate on three occasions on each colony. […] Minimum inhibitory concentrations of both the LexA and LacZ strains pre-treatment=8.0 mg/L.

[6] = tested on: LacZ strain (ATCC 25922-ΔlacZ); assay: as above; assay type: cell-based, E. coli; settings: Escherichia coli
Protocol: as §2

[7] = tested on: ATCC 25922 lexA(S119A); assay: neutropenic CD1 mouse thigh infection treated with rifampin, colonies on rifampin plates; settings: rifampin 100 mg/kg twice daily subcutaneous; plates 128 mg/L; over the 72 h study period
Protocol: as §3

[8] = tested on: E. coli ATCC 25922-ΔlacZ; assay: in vitro susceptibility testing with rifampin, Example 8; assay type: cell-based; settings: Escherichia coli
Protocol: as §1

[9] = tested on: ATCC 25922-lexA(S119A)(gyrA(S83L)); assay: second step mutation rate to 650 ng/ml ciprofloxacin resistance; assay type: cell-based, E. coli; settings: lexA(S119A) strain already resistant to 35 ng/ml, evolving resistance to 650 ng/ml ciprofloxacin
Source text: (§4) Error bars represent standard deviation from two independent rate determinations.

[10] = tested on: E. coli K-12 (MG1655) isogenic loss of function strains; assay: ciprofloxacin MIC of isogenic strains (Table 5); settings: Escherichia coli
[11] = tested on: ATCC 25922-lexA(S119A); assay: mouse thigh infection treated with ciprofloxacin, resistant colonies; settings: mice given approximately cytostatic ciprofloxacin dose
[12] = tested on: ATCC 25922-ΔlacZ(gyrA(S83L)); assay: second step mutation rate to 650 ng/ml ciprofloxacin resistance; assay type: cell-based, E. coli; settings: wild-type strain already resistant to 35 ng/ml, evolving resistance to 650 ng/ml ciprofloxacin
Source text: as §4

[13] = biological target: LexA (Escherichia coli, UniProt P0A7C2); settings: peptide at 1.5 mM; LexA 5 uM, 0.25 uM activated RecA, 37 degrees, 30 min (FIG. 20)
Protocol: Cleavage of LexA was initiated by the addition of 0.25 uM activated RecA. The mixture was incubated at 37 degrees for 30 min. Aliquots were removed and quenched in aqueous acetonitrile containing 0.1% TFA.
The cleavage of LexA protein was monitored by HPLC using a gradient of 30 to 90% buffer B (9.9% H2O, 90% CH3CN, 0.1% TFA) in buffer A(98% H2O, 1.9% CH3CN, 0.1% TFA) and recording absorbance at 214 nm. […] Error bars represent one standard deviation of three separate experiments.

[14] = ATCC25922, colonies from the 72 hr time point of rifampin therapy in mice, read-out: Minimum Inhibitory Concentrations, Post
[15] = ATCC25922, pre-treatment, read-out: Minimum Inhibitory Concentrations, Pre

Chain of LexA (P0A7C2 whole entry): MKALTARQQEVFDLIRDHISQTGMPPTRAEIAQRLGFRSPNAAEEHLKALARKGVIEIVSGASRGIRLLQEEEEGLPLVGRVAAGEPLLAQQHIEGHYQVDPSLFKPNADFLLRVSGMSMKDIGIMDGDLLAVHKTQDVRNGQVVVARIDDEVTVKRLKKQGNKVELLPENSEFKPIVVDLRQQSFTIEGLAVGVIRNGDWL

Question: `CO[C@H]1/C=C/O[C@@]2(C)Oc3c(C)c(O)c4c(O)c(c(/C=N/N5CCN(C)CC5)c(O)c4c3C2=O)NC(=O)/C(C)=C\C=C\[C@H](C)[C@H](O)[C@@H](C)[C@@H](O)[C@@H](C)[C@H](OC(C)=O)[C@@H]1C` [rifampin] was tested. Which “effect on number of ciprofloxacin resistant colonies” value ([1]; 4 mg/mL rifampicin in PBS, four days, 37° C., plated on 35 ng/mL ciprofloxacin) did it give?
Answer: The value was “no effect”.

Question: What about the “effect on number of ciprofloxacin resistant cells” value ([1]; 12 mg/mL rifampicin in PBS, four days, 37° C., plated on 35 ng/mL ciprofloxacin) of the same compound?
Answer: Its value is “dramatic increase”.

Question: What about the “effect on number of ciprofloxacin resistant cells” value ([1]; 36 mg/mL rifampicin in PBS, four days, 37° C., plated on 35 ng/mL ciprofloxacin) of the same compound?
Answer: The value was “dramatic increase”.

Question: What about the “effect on number of ciprofloxacin resistant cells in umuDC deletion strain” value ([1]; umuDC deletion stain, 12 or 36 mg/mL rifampicin) of the same compound?
Answer: Its value is “essentially completely lost”.

Question: And the “CFU/Thigh, Media (outcome of mice)” value [2]?
Answer: Its value is “mice dead”.

Question: And the MIC ([3]; Escherichia coli, ATCC25922, parent strain, read-out: MIC)?
Answer: Its MIC is 8 µg/mL (≈ 9.72 µM).

Question: What about the MIC ([3]; colonies after therapy) of the same compound?
Answer: The MIC was 8.0 µg/mL (≈ 9.72 µM).

Question: And the “colonies on rifampin containing plates” value [4]?
Answer: The value was “large number”.

Question: What about the MIC [5, 14] of the same compound?
Answer: Its MIC is 16 to 32 µg/mL (≈ 19.4 to 38.9 µM).

Question: And the MIC [5, 15]?
Answer: Its MIC is 8 µg/mL (≈ 9.72 µM).

Question: What about the MIC [6, 14] of the same compound?
Answer: The MIC was over 16400 µg/mL.

Question: And the MIC [6, 15]?
Answer: The MIC was 8 µg/mL (≈ 9.72 µM).

Question: What about the “colonies on rifampin containing plates” value [7] of the same compound?
Answer: Its value is “no colonies grew”.

Question: And the MIC ([8]; ATCC25922, colonies isolated from the rifampin containing plates after therapy)?
Answer: The MIC was over 256 µg/mL.

Question: What about the MIC ([8]; ATCC25922, parent strain) of the same compound?
Answer: The MIC was 8 µg/mL (≈ 9.72 µM).

Question: With `O=C(O)c1cn(C2CC2)c2cc(N3CCNCC3)c(F)cc2c1=O` [ciprofloxacin] as the compound, how does the “'second step' mutation rate” value [9] read?
Answer: The value was 5.5 (±4.9)×10^−7 mutants/(cell day).

Question: And the MIC ([10]; MG1655, read-out: ciprofloxacin MIC, strain lexA (S119A), WT gyrA)?
Answer: The MIC was 0.03 µg/mL.

Question: What about the MIC ([10]; MG1655, read-out: ciprofloxacin MIC, strain lexA (S119A), gyrA S83L) of the same compound?
Answer: The MIC was 0.35 µg/mL.

Question: And the MIC ([10]; MG1655, read-out: ciprofloxacin MIC, strain lexA (S119A), gyrA S83Δ)?
Answer: Its MIC is 0.25 µg/mL.

Question: And the MIC ([10]; MG1655, read-out: ciprofloxacin MIC, strain ΔdinB, WT gyrA)?
Answer: Its MIC is 0.035 µg/mL.

Question: What about the MIC ([10]; MG1655, read-out: ciprofloxacin MIC, strain ΔdinB, gyrA S83L) of the same compound?
Answer: Its MIC is 0.45 µg/mL.

Question: What about the MIC ([10]; MG1655, read-out: ciprofloxacin MIC, strain ΔdinB, gyrA S83Δ) of the same compound?
Answer: Its MIC is 0.25 µg/mL.

Question: What about the MIC ([10]; MG1655, read-out: ciprofloxacin MIC, strain ΔdinB, ΔumuDC, WT gyrA) of the same compound?
Answer: Its MIC is 0.035 µg/mL.

Question: What about the MIC ([10]; MG1655, read-out: ciprofloxacin MIC, strain ΔdinB, ΔumuDC, gyrA S83L) of the same compound?
Answer: The MIC was 0.45 µg/mL.

Question: And the MIC ([10]; MG1655, read-out: ciprofloxacin MIC, strain ΔdinB, ΔumuDC, gyrA S83Δ)?
Answer: Its MIC is 0.25 µg/mL.

Question: And the MIC ([10]; MG1655, read-out: ciprofloxacin MIC, strain ΔlacZ, WT gyrA)?
Answer: Its MIC is 0.035 µg/mL.

Question: What about the MIC ([10]; MG1655, read-out: ciprofloxacin MIC, strain ΔlacZ, gyrA S83L) of the same compound?
Answer: Its MIC is 0.45 µg/mL.

Question: What about the MIC ([10]; MG1655, read-out: ciprofloxacin MIC, strain ΔlacZ, gyrA S83Δ) of the same compound?
Answer: The MIC was 0.25 µg/mL.

Question: What about the MIC ([10]; MG1655, read-out: ciprofloxacin MIC, strain ΔpolB, WT gyrA) of the same compound?
Answer: The MIC was 0.03 µg/mL.

Question: And the MIC ([10]; MG1655, read-out: ciprofloxacin MIC, strain ΔpolB, gyrA S83L)?
Answer: The MIC was 0.45 µg/mL.

Question: And the MIC ([10]; MG1655, read-out: ciprofloxacin MIC, strain ΔpolB, gyrA S83Δ)?
Answer: Its MIC is 0.25 µg/mL.

Question: What about the MIC ([10]; MG1655, read-out: ciprofloxacin MIC, strain ΔpolB, ΔdinB, WT gyrA) of the same compound?
Answer: Its MIC is 0.025 µg/mL.

Question: And the MIC ([10]; MG1655, read-out: ciprofloxacin MIC, strain ΔpolB, ΔdinB, gyrA S83L)?
Answer: The MIC was 0.45 µg/mL.

Question: What about the MIC ([10]; MG1655, read-out: ciprofloxacin MIC, strain ΔpolB, ΔdinB, gyrA S83Δ) of the same compound?
Answer: The MIC was 0.25 µg/mL.

Question: And the MIC ([10]; MG1655, read-out: ciprofloxacin MIC, strain ΔpolB, ΔdinB, ΔumuDC, WT gyrA)?
Answer: Its MIC is 0.025 µg/mL.

Question: And the MIC ([10]; MG1655, read-out: ciprofloxacin MIC, strain ΔpolB, ΔdinB, ΔumuDC, gyrA S83L)?
Answer: Its MIC is 0.45 µg/mL.

Question: And the MIC ([10]; MG1655, read-out: ciprofloxacin MIC, strain ΔpolB, ΔdinB, ΔumuDC, gyrA S83Δ)?
Answer: The MIC was 0.25 µg/mL.

Question: What about the MIC ([10]; MG1655, read-out: ciprofloxacin MIC, strain ΔpolB, ΔumuDC, WT gyrA) of the same compound?
Answer: Its MIC is 0.025 µg/mL.

Question: What about the MIC ([10]; MG1655, read-out: ciprofloxacin MIC, strain ΔpolB, ΔumuDC, gyrA S83L) of the same compound?
Answer: Its MIC is 0.45 µg/mL.

Question: What about the MIC ([10]; MG1655, read-out: ciprofloxacin MIC, strain ΔpolB, ΔumuDC, gyrA S83Δ) of the same compound?
Answer: Its MIC is 0.25 µg/mL.

Question: What about the MIC ([10]; MG1655, read-out: ciprofloxacin MIC, strain ΔrecD, WT gyrA) of the same compound?
Answer: The MIC was 0.035 µg/mL.

Question: What about the MIC ([10]; MG1655, read-out: ciprofloxacin MIC, strain ΔrecD, gyrA S83L) of the same compound?
Answer: Its MIC is 0.35 µg/mL.

Question: What about the MIC ([10]; MG1655, read-out: ciprofloxacin MIC, strain ΔrecD, gyrA S83Δ) of the same compound?
Answer: The MIC was 0.25 µg/mL.

Question: And the MIC ([10]; MG1655, read-out: ciprofloxacin MIC, strain ΔumuDC, WT gyrA)?
Answer: The MIC was 0.035 µg/mL.

Question: And the MIC ([10]; MG1655, read-out: ciprofloxacin MIC, strain ΔumuDC, gyrA S83L)?
Answer: The MIC was 0.45 µg/mL.

Question: And the MIC ([10]; MG1655, read-out: ciprofloxacin MIC, strain ΔumuDC, gyrA S83Δ)?
Answer: Its MIC is 0.25 µg/mL.

Question: And the “Colonies isolated on plates containing ciprofloxacin” value (“Colonies isolated” below) ([11]; day 1 post infection, plates 20 ng/mL)?
Answer: Its value is 3.

Question: What about the “Colonies isolated” value ([11]; day 1 post infection, plates 80 ng/mL) of the same compound?
Answer: The value was 1.

Question: What about the “Colonies isolated” value ([11]; day 2 post infection, plates 20 ng/mL) of the same compound?
Answer: The value was 2.

Question: And the “Colonies isolated” value ([11]; day 2 post infection, plates 80 ng/mL)?
Answer: Its value is 0.

Question: What about the “'second step' mutation rate” value [12] of the same compound?
Answer: The value was 1.9 (±0.21)×10^−4 mutants/(cell day).

Question: Which “inhibition of LexA's autocleavage” value [13] does the source give for VAAGEPL [peptide 3] here?
Answer: The value was “inhibition”.
